Results from PubChem BioAssay (NCI).
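Step 1: Grow cells in 96-well plates. Step 2: Expose to compound for 48 hours at 5 concentrations. Step 3: Interpolate endpoints linearly; if unreached, use highest concentration. TGI is the concentration that stops growth completely.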

Key:
Experiment in all cases: NCI anticancer screen, dose series, 48 h
UO-31 renal = test system: UO-31 renal
CCRF-CEM leukemia = test system: CCRF-CEM leukemia
LOX IMVI melanoma = test system: LOX IMVI melanoma
MALME-3M melanoma = test system: MALME-3M melanoma
IGROV1 ovarian = test system: IGROV1 ovarian
HOP-92 NSCLC = test system: HOP-92 NSCLC
SK-MEL-28 melanoma = test system: SK-MEL-28 melanoma
SK-MEL-2 melanoma = test system: SK-MEL-2 melanoma
EKVX NSCLC = test system: EKVX NSCLC
TK-10 renal = test system: TK-10 renal
OVCAR-8 ovarian = test system: OVCAR-8 ovarian
SN12C renal = test system: SN12C renal
SNB-75 CNS = test system: SNB-75 CNS
SR leukemia = test system: SR leukemia
786-0 renal = test system: 786-0 renal
DU-145 prostate = test system: DU-145 prostate
MCF7 breast = test system: MCF7 breast
MDA-N = test system: MDA-N
OVCAR-5 ovarian = test system: OVCAR-5 ovarian
BT-549 breast = test system: BT-549 breast

Row | SMILES | TGI (UO-31 renal) | TGI (CCRF-CEM leukemia) | TGI (LOX IMVI melanoma) | TGI (MALME-3M melanoma) | TGI (IGROV1 ovarian) | TGI (HOP-92 NSCLC) | TGI (SK-MEL-28 melanoma) | TGI (SK-MEL-2 melanoma) | TGI (EKVX NSCLC) | TGI (TK-10 renal) | TGI (OVCAR-8 ovarian) | TGI (SN12C renal) | TGI (SNB-75 CNS) | TGI (SR leukemia) | TGI (786-0 renal) | TGI (DU-145 prostate) | TGI (MCF7 breast) | TGI (MDA-N) | TGI (OVCAR-5 ovarian) | TGI (BT-549 breast)
1 | Cc1ccc(C(=O)/C=C/c2cccc([N+](=O)[O-])c2)cc1 | > 100 µM | > 89.9 µM | > 100 µM | > 100 µM | > 100 µM | > 100 µM | > 100 µM | > 100 µM | > 100 µM | > 100 µM | > 100 µM | > 100 µM | > 92.9 µM | 51.1 µM | > 62.9 µM |  |  |  |  | 
2 | COc1ccc(NC(=O)C(C)Oc2ccc(OCC3CCCCC3)cc2)cc1 (stereo not drawn) | > 100 µM | > 100 µM | > 100 µM | > 100 µM | > 100 µM |  | > 100 µM | > 100 µM |  | > 100 µM | > 100 µM | > 100 µM | > 100 µM |  | > 100 µM |  |  |  |  | 
3 | O/N=C1/CC2(N3CCOCC3)C3CC/C(=N\O)C2CC1(Cc1ccccc1)C3 (stereo not drawn) | > 100 µM | > 100 µM | > 100 µM | > 100 µM | > 100 µM |  | > 100 µM | > 100 µM | > 100 µM |  | > 100 µM | > 100 µM | 96 µM | > 100 µM | > 100 µM | > 100 µM | > 100 µM | > 100 µM | > 100 µM | 
4 | COc1ccc(/C=C2\CCC(CCN(C)C)(C3=CCCC3)C2=O)cc1Br (stereo not drawn) | 17.6 µM | 5.74 µM | 15.4 µM | 28 µM | 14.7 µM | 11.3 µM | 7.7 µM | 22.2 µM | 8.62 µM | 20 µM | 21.9 µM | 22 µM | 17.5 µM | 5.06 µM | 14.3 µM |  |  |  | 27.1 µM | 
5 | CCN(CC)Cc1ccc(C(=S)Nc2ccc(C)cc2)s1 | 28.9 µM | 30.8 µM | 30.2 µM | 32.5 µM | 26.2 µM |  | 30.5 µM | 30.2 µM | 35.2 µM |  | 35.3 µM |  |  | 37.6 µM | 29.1 µM | 56.7 µM | 25.1 µM |  | 29.5 µM | 40.2 µM
6 | O=c1cc(-c2ccco2)[nH]c2cc3c(cc12)OCO3 | > 100 µM | > 100 µM | > 100 µM | > 100 µM | > 100 µM |  | > 100 µM | > 100 µM | > 100 µM | > 100 µM |  | > 100 µM | 56.5 µM | > 100 µM | > 100 µM |  |  |  |  | 
7 | COc1cc2c(cc1OC)CC1c3cc(OC)c(OC)cc3CCN1CC2 (stereo not drawn) | > 100 µM | > 100 µM |  |  | > 100 µM | > 100 µM | > 100 µM | > 100 µM | > 100 µM | > 100 µM | > 100 µM | > 100 µM | > 100 µM | > 100 µM | > 100 µM | > 100 µM | > 100 µM |  | > 100 µM | > 100 µM
8 | C=C1C(OC(=O)/C=C/c2ccccc2)CC(OC(C)=O)C2(C)C1CC1CC(OC(C)=O)C(C)=C(C(OC(C)=O)C2OC(C)=O)C1(C)C (stereo not drawn) | > 100 µM | > 100 µM | > 100 µM | > 100 µM | > 100 µM | > 100 µM |  |  |  | > 100 µM | > 100 µM | > 100 µM | > 100 µM | > 100 µM | > 100 µM |  |  |  | > 100 µM | 
9 | N=CN=CC(=S)O[C@@H]1C(=O)N2CCC[C@@]23CCCC[C@@H]13 | > 12.5 µM | > 12.5 µM | > 12.5 µM | > 12.5 µM | > 12.5 µM |  | > 12.5 µM | > 12.5 µM | > 12.5 µM | > 12.5 µM | > 12.5 µM | > 12.5 µM | > 12.5 µM | > 12.5 µM | > 12.5 µM | > 12.5 µM | > 12.5 µM | > 12.5 µM | > 12.5 µM | 
10 | CN(C)c1snc2c1c(=O)n(C)c(=O)n2C | > 100 µM | > 100 µM | > 100 µM | > 100 µM | > 100 µM |  | > 100 µM | > 100 µM | > 100 µM | > 100 µM | > 100 µM | > 100 µM | > 100 µM |  | > 100 µM |  |  |  | > 100 µM | 
11 | CCCCNC(=O)C1C2CCC(O2)C1C(=O)O (stereo not drawn) | > 100 µM |  | 34.7 µM | 43.7 µM | > 100 µM | 39 µM | 76.1 µM | 54.8 µM | 65.6 µM | 42.5 µM | 43.3 µM | 30.9 µM | 52.1 µM | 95.4 µM | 31.5 µM |  |  |  | > 100 µM | 
12 | COc1ccc(/C(=C/n2ccnc2)C(O)c2ccc(OC)c(OC)c2)cc1OC (stereo not drawn) | > 100 µM | > 100 µM | > 100 µM |  | > 100 µM | > 100 µM | > 100 µM | > 100 µM |  | > 100 µM | > 100 µM | > 100 µM | > 100 µM | > 100 µM | > 100 µM |  |  |  | > 100 µM | 
13 | CCc1cc(CCC(=O)Nc2ccccc2[N+](=O)[O-])[nH]c(=S)n1 | > 100 µM | > 100 µM | > 100 µM |  | > 100 µM | > 100 µM | > 100 µM | > 100 µM | > 100 µM | > 100 µM | > 100 µM |  |  | > 100 µM | > 100 µM |  |  |  | > 100 µM | 
14 | O=C(O)[C@H](Cc1ccccc1)NCCN1CCC[C@H]1C(=O)O | > 100 µM |  |  | > 100 µM |  | 72.3 µM | > 100 µM | > 100 µM |  |  | > 100 µM | > 100 µM |  |  | > 100 µM | > 100 µM | > 100 µM | > 100 µM | > 100 µM | 
15 | C=CCN1/C(=C2\SC(=S)N(c3ccc(C)cc3)C2=O)Sc2c1nc[nH]c2=O | > 100 µM | > 100 µM | > 100 µM | > 100 µM | > 100 µM | > 100 µM | > 100 µM | > 100 µM | > 100 µM | > 100 µM | > 100 µM | > 100 µM |  |  | > 100 µM |  |  |  | > 100 µM | 
